SMILES strings stand for the structures.

In experiment [1] the target is T1, 5-hydroxytryptamine receptor 2B (Homo sapiens, UniProt P41595). The experiment can be described thus: Displacement of [3H]LSD from human 5-HT2B receptor measured after 90 mins by microbeta scintillation counting method.
The species entered for experiment [2] is Homo sapiens. The experiment can be described thus: Selectivity index, ratio of Ki for human 5-HT2A receptor to Ki for human 5-HT2B receptor.
In experiment [3] the target is 5-hydroxytryptamine receptor 2A (Homo sapiens, UniProt P28223). The experiment can be described thus: Displacement of [3H]ketanserin from human 5-HT2A receptor measured after 90 mins by microbeta scintillation counting method. In general terms: In a radioligand displacement assay an active substance lowers the binding of a labelled ligand.
Chain of 5-hydroxytryptamine receptor 2A (P28223 whole entry): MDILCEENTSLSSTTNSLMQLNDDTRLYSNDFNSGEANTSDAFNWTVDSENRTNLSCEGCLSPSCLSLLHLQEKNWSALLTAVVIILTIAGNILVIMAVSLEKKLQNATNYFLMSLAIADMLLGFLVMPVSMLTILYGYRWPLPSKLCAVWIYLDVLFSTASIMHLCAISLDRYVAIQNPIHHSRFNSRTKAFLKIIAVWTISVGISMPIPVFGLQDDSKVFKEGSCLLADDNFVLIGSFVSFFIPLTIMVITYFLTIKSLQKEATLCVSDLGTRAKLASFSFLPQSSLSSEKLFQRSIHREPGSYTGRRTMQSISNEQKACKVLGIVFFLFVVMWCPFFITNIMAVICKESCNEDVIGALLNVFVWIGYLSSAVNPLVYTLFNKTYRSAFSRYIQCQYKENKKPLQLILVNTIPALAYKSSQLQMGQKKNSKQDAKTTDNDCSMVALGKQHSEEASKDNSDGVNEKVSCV
For experiment [4], the species on record is Homo sapiens. The experiment is described as follows: Selectivity index, ratio of Ki for human 5-HT2C receptor to Ki for human 5-HT2B receptor.
In experiment [5] the target is T2, 5-hydroxytryptamine receptor 2C (Homo sapiens, UniProt P28335).
T2 sequence (P28335 whole entry): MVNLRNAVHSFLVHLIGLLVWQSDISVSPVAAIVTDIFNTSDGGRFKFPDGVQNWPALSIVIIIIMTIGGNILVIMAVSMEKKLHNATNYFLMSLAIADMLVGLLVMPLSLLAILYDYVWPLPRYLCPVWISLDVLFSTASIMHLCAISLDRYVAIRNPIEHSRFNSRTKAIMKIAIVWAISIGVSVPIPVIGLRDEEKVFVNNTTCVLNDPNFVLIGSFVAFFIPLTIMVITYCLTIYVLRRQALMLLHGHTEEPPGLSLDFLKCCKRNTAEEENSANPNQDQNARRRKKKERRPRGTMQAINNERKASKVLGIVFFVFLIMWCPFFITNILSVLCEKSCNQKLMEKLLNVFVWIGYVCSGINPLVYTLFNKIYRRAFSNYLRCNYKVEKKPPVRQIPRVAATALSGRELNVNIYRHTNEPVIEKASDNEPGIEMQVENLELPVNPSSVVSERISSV
The experiment is described as follows: Displacement of [3H]mesulergine from human 5-HT2C receptor measured after 90 mins by microbeta scintillation counting method.

Experiment [6] has as its target T1, 5-hydroxytryptamine receptor 2B. The experiment can be described thus: Antagonist activity at human 5-HT2B receptor by PDSP assay.

T1 sequence (P41595 whole entry): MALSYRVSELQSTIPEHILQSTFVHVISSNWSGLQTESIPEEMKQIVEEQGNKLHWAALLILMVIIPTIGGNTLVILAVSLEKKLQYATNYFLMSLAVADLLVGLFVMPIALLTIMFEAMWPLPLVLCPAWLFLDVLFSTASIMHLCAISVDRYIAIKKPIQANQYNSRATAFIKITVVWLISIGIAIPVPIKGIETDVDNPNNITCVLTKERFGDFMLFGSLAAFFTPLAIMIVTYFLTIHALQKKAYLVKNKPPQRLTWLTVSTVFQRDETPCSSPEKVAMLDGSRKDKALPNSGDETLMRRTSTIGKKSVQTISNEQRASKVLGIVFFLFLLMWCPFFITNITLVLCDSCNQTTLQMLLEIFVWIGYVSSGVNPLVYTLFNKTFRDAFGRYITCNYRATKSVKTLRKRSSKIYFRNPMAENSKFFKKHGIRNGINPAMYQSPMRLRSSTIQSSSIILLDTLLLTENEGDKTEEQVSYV

For the compound `COc1ccc(CCN(CCCc2cccc(F)c2)CCc2ccc3c(c2)OCO3)cc1OC`, the Ki – broadly, a measure of affinity in units of concentration, obtained from inhibition or displacement – stood at 18 nM in experiment [1], 185 nM in experiment [3] and 167 nM in experiment [5]. In addition, the Ratio Ki stood at 10 in experiment [2] and 9 in experiment [4].
On to `COc1ccc(CCN(CCCc2ccccc2)CCc2ccc3c(c2)OCO3)cc1OC`, for which the Ratio Ki was found to be 6 in experiment [2] and 15 in experiment [4].
Turning to `COc1ccc(CCN(CCCc2ccccc2I)CCc2ccc3c(c2)OCO3)cc1OC`, the Ki in experiment [1] came out at 13 nM; in experiment [3] it was 75 nM; in experiment [5], 68 nM. For the same compound, the results for the Ratio Ki in experiment [2] and in experiment [4] were 6 and 5, respectively.
As for `COc1ccc(CCN(CCCc2ccccc2F)CCc2ccc3c(c2)OCO3)cc1OC`, the Ki in experiment [1] amounted to 1.7 nM; in experiment [3] it was 65 nM; in experiment [5], 79 nM. The Ratio Ki stood at 38 in experiment [2] and 46 in experiment [4]. Besides, the IC50 (usually the concentration that gives 50% inhibition) in experiment [6] worked out at 135 nM.
On to `COc1ccc(CCN(CCCc2ccccc2Br)CCc2ccc3c(c2)OCO3)cc1OC`, for which the values for the Ki in experiment [1], in experiment [3] and in experiment [5] were 3.4 nM, 54 nM and 124 nM, respectively. In addition, the Ratio Ki in experiment [2] was found to be 16; in experiment [4] it was 36. For the same compound, in experiment [6], the IC50 came to 326 nM.
For the compound `COc1ccc(CCN(CCCc2cccc(Cl)c2)CCc2ccc3c(c2)OCO3)cc1OC`, the Ki came to 17 nM in experiment [1], 125 nM in experiment [3] and 206 nM in experiment [5]. Further, the Ratio Ki in experiment [2] stood at 7; in experiment [4], 12.
On the same counts, the results for `COc1ccc(CCN(CCCc2ccc(Cl)cc2)CCc2ccc3c(c2)OCO3)cc1OC` are 54 nM, 365 nM, 235 nM, 7 and 4.
For the compound `COc1ccc(CCN(CCCc2ccc(F)cc2)CCc2ccc3c(c2)OCO3)cc1OC`, the results for the Ki in experiment [1], in experiment [3] and in experiment [5] were 14 nM, 185 nM and 126 nM, respectively. The values for the Ratio Ki in experiment [2] and in experiment [4] were 13 and 9, respectively.
In the same order, the values of `COc1ccc(CCN(CCCc2ccc(I)cc2)CCc2ccc3c(c2)OCO3)cc1OC` are 51 nM, 288 nM, 224 nM, 6 and 4.
In the case of `Cn1ccc2cc(NC(=O)Nc3cccnc3)ccc21`, in experiment [1], the Ki worked out at 21 nM.
Consider `COc1ccc(CCN(CCCc2ccc(Br)cc2)CCc2ccc3c(c2)OCO3)cc1OC`, for which the Ki in experiment [1] is 45 nM; in experiment [3], 221 nM; in experiment [5], 219 nM. Besides, the Ratio Ki in experiment [2] and in experiment [4] was 5 each time.
For `COc1ccc(CCN(CCCc2ccccc2Cl)CCc2ccc3c(c2)OCO3)cc1OC`, the Ki amounted to 3.1 nM in experiment [1], 43 nM in experiment [3] and 92 nM in experiment [5]. Also, the Ratio Ki in experiment [2] stood at 14; in experiment [4], 30. The compound also returned an IC50 in experiment [6] of 99 nM.
As for `COc1ccc(CCN(CCCc2cccc(I)c2)CCc2ccc3c(c2)OCO3)cc1OC`, the figures for the Ki in experiment [1], in experiment [3] and in experiment [5] were 18 nM, 169 nM and 154 nM, respectively. The Ratio Ki in experiment [2] and in experiment [4] was 9 each time.
As for `COc1ccc(CCN(CCCc2cccc(Br)c2)CCc2ccc3c(c2)OCO3)cc1OC`, the Ki worked out at 14 nM in experiment [1], 103 nM in experiment [3] and 143 nM in experiment [5]. Further, the Ratio Ki in experiment [2] stood at 7; in experiment [4], 10.
